± gives the expanded uncertainty stated by the source.
Assay: xn = mol fraction of the nth substance listed
Conditions: x1 = 0.75; for surface tension liquid-gas: Ring tensiometer; for mass density: 101 kPa, Liquid, westphal balance

A surface tension liquid-gas (318.2 K) of 78.3 ± 0.99 mN/m, a mass density (318.2 K) of 1779.1 ± 0.5 kg/m3 and a surface tension liquid-gas (323.2 K) of 78 ± 0.99 mN/m were found for `[Cl-].[Cl-].[Zn+2]` [zinc chloride] + CCCCn1cc[n+](C)c1.[Cl-] in this work. The mass density (323.2 K) was 1773.6 ± 0.5 kg/m3, the surface tension liquid-gas (328.2 K) was 77.7 ± 0.99 mN/m and the mass density (328.2 K) was 1766.9 ± 0.5 kg/m3. The surface tension liquid-gas (333.2 K) was 77.2 ± 0.98 mN/m, the mass density (333.2 K) was 1758 ± 0.5 kg/m3 and the surface tension liquid-gas (338.2 K) was 76.8 ± 0.98 mN/m. The mass density (338.2 K) was 1749.2 ± 0.5 kg/m3, the surface tension liquid-gas (343.2 K) was 76.4 ± 0.97 mN/m and the mass density (343.2 K) was 1742.1 ± 0.5 kg/m3.
